Data on two compounds can be found in patent publication US11084822B2, “Salts and processes of preparing a PI3K inhibitor” (Incyte Corporation, priority 2015, dated 2021).

Holding throughout (type): biochemical
The target in one test is JAK2 (Homo sapiens (Human), UniProt O60674). Put plainly: JAK2 versus JAK1 (Assay A at 1 mM ATP). As to conditions: ratio JAK2/JAK1, Assay A at 1 mM ATP.
The next test addresses JAK1 (Homo sapiens (Human), UniProt P23458). In words: JAK1 IC50 by the method of Assay A at 1 mM ATP.
In a further test the target is PI3Kδ (Homo sapiens (Human), UniProt O00329). Put plainly: Example A2: PI3K Enzyme Assay ([γ-33P]ATP filter plate). As to conditions: assay of Example A2. How it is done:
PI3K isoforms α, β, δ and γ are purchased from Millipore (Bedford, Mass.).
The kinase reactions are conducted in clear-bottom 96-well plate from Thermo Fisher Scientific in a final volume of 24 μL. Inhibitors are first diluted serially in DMSO and added to the plate wells before the addition of other reaction components. The final concentration of DMSO in the assay is 0.5%. […] The reaction mixture is prepared containing 50 μM PIP2, kinase and varying concentration of inhibitors. […] Reactions are incubated for 180 minutes and terminated by the addition of 100 μL of 1 M potassium phosphate pH 8.0, 30 mM EDTA quench buffer. A 100 μL aliquot of the reaction solution are then transferred to 96-well Millipore MultiScreen IP 0.45 μm PVDF filter plate (The filter plate is prewetted with 200 μL 100% ethanol, distilled water, and 1 M potassium phosphate pH 8.0, respectively). […] After drying by aspiration and blotting, the plate is air dried in an incubator at 37° C. overnight. Packard TopCount adapter (Millipore) is then attached to the plate followed with addition of 120 μL Microscint 20 scintillation cocktail (Perkin Elmer) in each well. After the plate sealing, the radioactivity of the product is determined by scintillation counting on Topcount (Perkin-Elmer). […]

In the next test the test system is PI3K. In words: PI3K inhibition according to at least one assay described herein.

Sequence of JAK1 (P23458 whole entry, species assumed): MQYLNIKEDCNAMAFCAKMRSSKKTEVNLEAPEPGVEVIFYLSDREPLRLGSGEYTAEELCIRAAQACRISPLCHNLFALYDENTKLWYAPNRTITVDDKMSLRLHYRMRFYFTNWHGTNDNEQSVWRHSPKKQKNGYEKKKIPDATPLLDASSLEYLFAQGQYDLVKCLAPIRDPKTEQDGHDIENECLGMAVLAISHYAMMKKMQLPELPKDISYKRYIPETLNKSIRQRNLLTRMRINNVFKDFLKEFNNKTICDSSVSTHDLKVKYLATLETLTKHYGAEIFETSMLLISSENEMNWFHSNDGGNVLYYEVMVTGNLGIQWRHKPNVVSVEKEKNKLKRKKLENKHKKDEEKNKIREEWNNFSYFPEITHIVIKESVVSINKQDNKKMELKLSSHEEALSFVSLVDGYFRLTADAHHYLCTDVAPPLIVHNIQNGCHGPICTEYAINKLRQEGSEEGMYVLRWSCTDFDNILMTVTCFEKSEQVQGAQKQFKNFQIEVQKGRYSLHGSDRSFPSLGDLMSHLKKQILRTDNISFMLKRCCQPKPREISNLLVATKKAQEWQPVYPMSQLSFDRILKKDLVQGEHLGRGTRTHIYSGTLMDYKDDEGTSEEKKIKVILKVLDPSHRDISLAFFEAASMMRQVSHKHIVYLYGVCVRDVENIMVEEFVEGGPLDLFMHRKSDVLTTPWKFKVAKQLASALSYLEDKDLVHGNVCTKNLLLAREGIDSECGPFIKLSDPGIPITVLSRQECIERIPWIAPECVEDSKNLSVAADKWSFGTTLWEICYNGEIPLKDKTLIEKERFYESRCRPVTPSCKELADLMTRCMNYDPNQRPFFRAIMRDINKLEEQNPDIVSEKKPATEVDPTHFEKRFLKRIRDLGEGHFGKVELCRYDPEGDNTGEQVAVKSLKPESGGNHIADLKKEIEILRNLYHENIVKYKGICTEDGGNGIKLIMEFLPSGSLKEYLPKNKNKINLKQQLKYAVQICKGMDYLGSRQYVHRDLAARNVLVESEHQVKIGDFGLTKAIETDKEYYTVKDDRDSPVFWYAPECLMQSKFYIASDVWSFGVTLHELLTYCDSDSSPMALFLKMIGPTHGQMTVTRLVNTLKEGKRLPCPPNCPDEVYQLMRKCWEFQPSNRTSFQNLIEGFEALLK
Sequence of JAK2 (O60674 whole entry, species assumed): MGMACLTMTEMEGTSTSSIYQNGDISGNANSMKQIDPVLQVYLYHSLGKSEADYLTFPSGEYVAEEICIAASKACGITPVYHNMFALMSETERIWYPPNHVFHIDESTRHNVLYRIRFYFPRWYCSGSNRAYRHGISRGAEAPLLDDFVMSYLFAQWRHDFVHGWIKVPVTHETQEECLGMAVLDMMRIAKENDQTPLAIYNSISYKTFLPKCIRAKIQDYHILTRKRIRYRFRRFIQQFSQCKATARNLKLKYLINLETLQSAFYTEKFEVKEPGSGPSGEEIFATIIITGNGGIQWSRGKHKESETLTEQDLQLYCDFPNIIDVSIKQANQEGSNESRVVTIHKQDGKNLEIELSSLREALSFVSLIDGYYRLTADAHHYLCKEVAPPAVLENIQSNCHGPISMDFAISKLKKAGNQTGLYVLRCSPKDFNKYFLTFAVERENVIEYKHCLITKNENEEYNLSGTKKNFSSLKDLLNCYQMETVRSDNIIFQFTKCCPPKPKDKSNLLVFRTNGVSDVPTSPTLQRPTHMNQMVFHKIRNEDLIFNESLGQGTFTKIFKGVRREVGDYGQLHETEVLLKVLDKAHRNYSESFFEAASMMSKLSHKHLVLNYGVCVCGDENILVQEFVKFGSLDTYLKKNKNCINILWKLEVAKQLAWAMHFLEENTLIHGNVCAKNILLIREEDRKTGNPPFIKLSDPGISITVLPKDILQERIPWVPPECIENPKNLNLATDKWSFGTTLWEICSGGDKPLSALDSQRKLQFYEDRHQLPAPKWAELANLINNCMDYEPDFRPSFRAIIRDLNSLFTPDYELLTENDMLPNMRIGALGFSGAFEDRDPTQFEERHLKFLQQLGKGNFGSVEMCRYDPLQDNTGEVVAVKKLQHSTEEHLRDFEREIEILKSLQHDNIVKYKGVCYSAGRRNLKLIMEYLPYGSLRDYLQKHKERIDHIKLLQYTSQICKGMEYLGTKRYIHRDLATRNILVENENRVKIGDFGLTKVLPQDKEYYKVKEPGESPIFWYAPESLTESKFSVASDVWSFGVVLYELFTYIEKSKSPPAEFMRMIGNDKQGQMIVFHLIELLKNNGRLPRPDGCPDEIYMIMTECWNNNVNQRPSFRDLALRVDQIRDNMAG
Sequence of PI3Kδ (O00329 whole entry, species assumed, canonical isoform): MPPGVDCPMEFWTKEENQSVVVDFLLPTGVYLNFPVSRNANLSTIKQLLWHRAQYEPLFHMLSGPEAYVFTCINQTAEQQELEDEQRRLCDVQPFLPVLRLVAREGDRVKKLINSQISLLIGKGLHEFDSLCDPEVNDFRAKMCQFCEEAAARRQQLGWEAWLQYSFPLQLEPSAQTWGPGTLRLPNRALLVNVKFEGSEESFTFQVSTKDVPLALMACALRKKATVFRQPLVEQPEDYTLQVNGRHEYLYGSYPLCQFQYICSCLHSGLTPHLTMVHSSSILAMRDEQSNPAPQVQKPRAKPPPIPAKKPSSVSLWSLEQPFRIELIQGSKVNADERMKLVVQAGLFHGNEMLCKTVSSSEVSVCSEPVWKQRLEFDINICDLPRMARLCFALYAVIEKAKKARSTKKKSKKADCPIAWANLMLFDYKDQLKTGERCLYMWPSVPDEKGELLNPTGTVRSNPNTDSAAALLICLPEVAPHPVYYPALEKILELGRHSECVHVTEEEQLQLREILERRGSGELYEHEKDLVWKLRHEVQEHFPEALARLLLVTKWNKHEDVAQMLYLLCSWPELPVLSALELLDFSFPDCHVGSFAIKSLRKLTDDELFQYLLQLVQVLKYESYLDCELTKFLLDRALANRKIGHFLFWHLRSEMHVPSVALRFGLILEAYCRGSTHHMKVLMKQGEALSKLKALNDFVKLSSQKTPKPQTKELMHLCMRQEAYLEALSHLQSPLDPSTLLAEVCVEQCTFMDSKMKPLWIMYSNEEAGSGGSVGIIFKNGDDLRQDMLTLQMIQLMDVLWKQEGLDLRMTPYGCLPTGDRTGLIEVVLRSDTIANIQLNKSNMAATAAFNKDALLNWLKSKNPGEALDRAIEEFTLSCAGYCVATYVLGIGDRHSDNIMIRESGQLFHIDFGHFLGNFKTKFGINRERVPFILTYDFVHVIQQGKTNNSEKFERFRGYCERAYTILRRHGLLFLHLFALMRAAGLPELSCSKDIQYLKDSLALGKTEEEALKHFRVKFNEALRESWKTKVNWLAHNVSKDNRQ
Sequence of PI3Kδ (P27986 whole entry partner, species assumed, canonical isoform): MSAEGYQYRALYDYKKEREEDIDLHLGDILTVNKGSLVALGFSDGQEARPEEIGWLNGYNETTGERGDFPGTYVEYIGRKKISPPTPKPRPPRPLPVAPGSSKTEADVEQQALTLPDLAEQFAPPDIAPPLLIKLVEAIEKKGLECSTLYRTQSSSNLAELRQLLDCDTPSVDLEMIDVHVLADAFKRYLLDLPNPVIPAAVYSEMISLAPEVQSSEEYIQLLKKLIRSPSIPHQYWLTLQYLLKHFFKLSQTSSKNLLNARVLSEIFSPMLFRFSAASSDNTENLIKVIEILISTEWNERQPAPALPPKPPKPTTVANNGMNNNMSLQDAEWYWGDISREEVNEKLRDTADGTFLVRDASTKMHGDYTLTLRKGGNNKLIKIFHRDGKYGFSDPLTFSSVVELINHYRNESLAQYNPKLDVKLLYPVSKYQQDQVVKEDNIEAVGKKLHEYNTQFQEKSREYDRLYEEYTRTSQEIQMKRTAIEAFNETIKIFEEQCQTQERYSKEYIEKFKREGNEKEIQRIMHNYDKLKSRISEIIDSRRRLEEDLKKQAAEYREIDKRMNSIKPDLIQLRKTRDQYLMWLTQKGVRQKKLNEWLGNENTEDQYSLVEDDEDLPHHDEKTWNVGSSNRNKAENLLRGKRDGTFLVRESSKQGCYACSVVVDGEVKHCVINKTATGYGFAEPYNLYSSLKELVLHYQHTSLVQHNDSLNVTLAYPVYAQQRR

As a reminder, the IC50 is the concentration at which inhibition is half-maximal. A higher IC50 goes with weaker potency. On to `C[C@@H](O)c1nc2cnc3ccsc3c2n1[C@H]1CC[C@H](CC#N)OC1` [Compound 1, ((2R,5S)-5-{2-[(1R)-1-hydroxyethyl]-1H-imidazo[4,5-d]thieno[3,2-b]pyridin-1-yl}tetrahydro-2H-pyran-2-yl)acetonitrile], for which the JAK2/JAK1 on JAK2 is given as above 10. On JAK1, this compound displayed an IC50 below 100 nM.

In the case of `CCOc1c([C@H](C)n2nc(C)c3c(N)ncnc32)cc(Cl)c(F)c1[C@@H]1CNC(=O)C1.Cl` [(R)-4-(3-((S)-1-(4-amino-3-methyl-1H-pyrazolo[3,4-d]pyrimidin-1-yl)ethyl)-5-chloro-2-ethoxy-6-fluorophenyl)pyrrolidin-2-one hydrochloride], the “selectivity for PI3Kδ” value at PI3Kδ was “selective inhibitor for PI3Kδ”. In the test on PI3K, the PI3K inhibition result is “found to be PI3K inhibitors”.
